{"source": "paper PMC6271870", "about": "“Study on the Synthesis, Biological Activity and Spectroscopy of Naphthalimide-Diamine Conjugates” (Molecules, 2014)", "key": {"herring sperm DNA-EB": {"system": "herring sperm DNA-EB", "experiment": "Fluorescence quenching of DNA-EB complex by compound (EB displacement)", "format": "binding", "details": "DNA-EB quenched by 7f", "text": "Ethidium bromide (EB) is a well known DNA intercalator, which is often used as a spectral probe to establish the mode of binding of small molecules to double-helical DNA [41]. The ﬂuorescence of EB increases after binding with DNA due to intercalation. Like EB, if naphthalimides intercalate into the helix of DNA, it would compete with EB for its intercalation sites in DNA, and the displacement of EB from the DNA–EB complex leads to a signiﬁcant decrease in the ﬂuorescence intensity of the DNA-EB complex. Therefore, herring sperm DNA-EB complex in the presence of increasing concentrations of naphthalimide-diamine conjugate 7f was also measured.\n(§1) The Stern–Volmer equation is the following: F0/F = 1+ KSVc = 1+ […] where F0 and F are the ﬂuorescence intensities in the absence and presence of quencher (DNA for compound 7f or compound 7f for DNA-EB, respectively), KSV is the Stern-Volmer quenching constant, [c] is the concentration of DNA (or compound 7f), Kq is the biomolecule quenching rate constant and Kq = KSV/τ0. τ0 is the average lifetime of the molecule without any quencher and the ﬂuorescence lifetime of the biopolymer is 10^−8 s. The Stern–Volmer plots of F0/F versus [c] at the three temperatures were shown in Figure 9 and Figure 10, and the calculated KSV and Kq values were presented in Table 2 and Table 3.\n(§2) When small molecules bind independently to a set of equivalent sites in a macromolecule, the binding constant (Kb) can be determined by the following equation [40, 52]: log[1/c] = log [F/(F0 − F)] + logKb(3) where Kb denotes the binding constant for interaction of naphthalimide–DNA, and F0, F, [c] have the same meanings as in Equation (2).\nThere are several acting forces between a small organic molecule and biomacromolecules, such as hydrophobic force, hydrogen bond, van der Waals force, electrostatic interactions, etc. […]"}, "cancer of colon HCT116": {"system": "cancer of colon HCT116", "experiment": "MTT assay, HCT116 cells", "format": "cell-based", "details": "Homo sapiens, HCT-116, aminoguanidine present, mean ± SD of three determinations, max 50 µM tested", "protocol": "(§3) The cytotoxicities of the novel conjugates were assessed in vitro by the MTT assay in the presence of aminoguanidine (an inhibitor of amine oxidase) against three cell lines, human leukemia K562, cancer of colon HCT116 and human normal hepatocyte QSG-7701 [34]. […] Thus, compound 7f was selected for further investigation. Cell lines, K562, 7721 and HCT116 were obtained from American Type Culture Collection (ATCC, Shanghai, China). Cells were cultured in RPMI1640, supplemented with 10% heat-inactivated fetal calf serum (FCS), antibiotics (penicillin, 100 units/mL; streptomycin sulfate, 100 μg/mL) at 37 °C, in an atmosphere of 95% air and 5% CO2 under humidified conditions. Aminoguanidine (1 mM) was added as an inhibitor of amine oxidase derived from FCS and had no effect on the various parameters of the cell measured in this study. In addition, exponentially growing HCT116 or 7721 cells were seeded into 96-well plates at 5000 cells/well and allowed to attach overnight, and then 100 μL of MTT (1 mg/mL) was added. After incubation for 4 h at 37 °C, the MTT solution was removed and the remaining formazan crystals were dissolved with 150 μL DMSO in each well. The absorbance of each well was then read at 570 nm."}, "human leukemia K562": {"system": "human leukemia K562", "experiment": "MTT assay, K562 cells", "format": "cell-based", "details": "48 h, aminoguanidine present, mean ± SD of three determinations, max 50 µM tested", "protocol": "as §3, with “Chemosensitivity” for “In addition, exponentially growing HCT116 or 7721 cells were seeded into 96-well plates at 5000 cells/well and allowed to attach overnight, and then 100 μL of MTT (1 mg/mL)”, “assessed using the 3-(4,5-dimethylthiazol-2-yl)-2,5-diphenyltetrazolium bromide (MTT) assay. […]” for “added.”, “purple” for “MTT solution was removed and the remaining”, “crystals (i.e., a reduced form of MTT) generated from viable cells” for “crystals”, “by adding 100” for “with 150”, “10% sodium dodecyl sulphate (SDS)” for “DMSO”"}, "herring sperm DNA": {"system": "herring sperm DNA", "experiment": "Fluorescence quenching of compound by DNA (Stern-Volmer, binding constant, thermodynamics)", "details": "7f quenched by DNA", "text": "as §1, §2\nThere are several acting forces between a small organic molecule and biomacromolecules, such as hydrophobic force, hydrogen bond, van der Waals force, electrostatic interactions, etc.\nPreparation of sample is the same as that of UV-Vis measurement. Fluorescence wavelengths and intensity areas of samples were measured at following conditions: EX = 345 nm, EM = 355~600 nm temperature: 298, 303 and 310 K."}}}
{"compound": "Cl.Cl.NCCCCNCCCN1C(=O)c2cccc3cccc(c23)C1=O", "note": "[Compound 7f, 2-[3-(4-Aminobutylamino)propyl]1H-benz-[de]isoquinoline-1,3(2H)-dione dihydrochloride]", "values": [{"measurement": "KSV (Stern-Volmer quenching constant)", "setting": "herring sperm DNA-EB; 298 K", "result": 5028, "unit": "L/mol"}, {"measurement": "KSV (Stern-Volmer quenching constant)", "setting": "herring sperm DNA-EB; 303 K", "result": 4564, "unit": "L/mol"}, {"measurement": "KSV (Stern-Volmer quenching constant)", "setting": "herring sperm DNA-EB; 310 K", "result": 4176, "unit": "L/mol"}, {"measurement": "IC50", "setting": "cancer of colon HCT116", "result": "5.45 ± 1.71", "unit": "µM"}, {"measurement": "IC50", "setting": "human leukemia K562", "result": "18.9 ± 1.97", "unit": "µM"}, {"measurement": "KSV (Stern-Volmer quenching constant)", "setting": "herring sperm DNA; 298 K", "result": 5567, "unit": "L/mol"}, {"measurement": "KSV (Stern-Volmer quenching constant)", "setting": "herring sperm DNA; 303 K", "result": 4789, "unit": "L/mol"}, {"measurement": "KSV (Stern-Volmer quenching constant)", "setting": "herring sperm DNA; 310 K", "result": 3651, "unit": "L/mol"}]}
